The experiment is described as follows: Inhibition of human prostanoid DP2 receptor in human whole bood assessed as eosinophil shape change preincubated for 15 mins before addition of PGD2 measured after 5 mins by FACS analysis.

As to `CCN(Cc1cc(C(F)(F)F)ccc1-c1cc(CC(=O)O)ccc1OC)C(=O)OCc1ccc(Cl)cc1`, the IC50 stood at 6 nM.
Regarding `COC(=O)N(Cc1ccccc1)Cc1cc(C(F)(F)F)ccc1-c1cc(CC(=O)O)ccc1OC`, the IC50 amounted to 22 nM.
As to `CCN(Cc1cc(C(F)(F)F)ccc1-c1cc(CC(=O)O)ccc1OC)C(=O)OC`, the IC50 was 8 nM.
For the compound `COC(=O)N(CCc1ccccc1)Cc1cc(C(F)(F)F)ccc1-c1cc(CC(=O)O)ccc1OC`, the IC50 was 34 nM.
Turning to `COc1ccc(CC(=O)O)cc1-c1ccc(C(F)(F)F)cc1CNC(=O)OCc1ccccc1`, the IC50 is 709 nM.
For `COc1ccc(CC(=O)O)cc1-c1ccc(C(F)(F)F)cc1CN(C)C(=O)OCc1ccccc1`, the IC50 came to 9 nM.
The same measure for `CCN(Cc1cc(C(F)(F)F)ccc1-c1cc(CC(=O)O)ccc1OC)C(=O)OCc1ccccc1Cl`: 7 nM; for `CCN(Cc1cc(C(F)(F)F)ccc1-c1cc(CC(=O)O)ccc1OC)C(=O)OCc1cccc(Cl)c1`: 7 nM.
For `CCN(Cc1cc(C(F)(F)F)ccc1-c1cc(CC(=O)O)ccc1OC)C(=O)OCc1cc(F)cc(F)c1`, the IC50 worked out at 5 nM.

The record behind these values is BindingDB's records for doi:10.1016/j.bmcl.2011.01.024 (Amira Pharmaceuticals, 2011).
